Results published in ChEMBL document CHEMBL1139497, “The effects of conformational constraints and steric bulk in the amino acid moiety of philanthotoxins on AMPAR antagonism” (J Med Chem, 2005).

What was measured:
[1] = biological target: Glutamate receptor ionotropic, AMPA (Rattus norvegicus, UniProt P19491+P19492+P19493+P19490); assay: Inhibition of kainate-induced currents of rat ionotropic glutamate receptor AMPA expressed in Xenopus laevis oocytes; not active; type: cell-based; settings: oocyte
[2] = biological target: Glutamate receptor ionotropic, AMPA (Rattus norvegicus, UniProt P19490+P19491+P19492+P19493); assay: Inhibition of kainate-induced currents of rat ionotropic glutamate receptor AMPA expressed in Xenopus laevis oocytes; type: cell-based, Oocyte

Glutamate receptor ionotropic, AMPA (Rattus norvegicus, UniProt P19491+P19492+P19493+P19490), sequence (P19491 whole entry): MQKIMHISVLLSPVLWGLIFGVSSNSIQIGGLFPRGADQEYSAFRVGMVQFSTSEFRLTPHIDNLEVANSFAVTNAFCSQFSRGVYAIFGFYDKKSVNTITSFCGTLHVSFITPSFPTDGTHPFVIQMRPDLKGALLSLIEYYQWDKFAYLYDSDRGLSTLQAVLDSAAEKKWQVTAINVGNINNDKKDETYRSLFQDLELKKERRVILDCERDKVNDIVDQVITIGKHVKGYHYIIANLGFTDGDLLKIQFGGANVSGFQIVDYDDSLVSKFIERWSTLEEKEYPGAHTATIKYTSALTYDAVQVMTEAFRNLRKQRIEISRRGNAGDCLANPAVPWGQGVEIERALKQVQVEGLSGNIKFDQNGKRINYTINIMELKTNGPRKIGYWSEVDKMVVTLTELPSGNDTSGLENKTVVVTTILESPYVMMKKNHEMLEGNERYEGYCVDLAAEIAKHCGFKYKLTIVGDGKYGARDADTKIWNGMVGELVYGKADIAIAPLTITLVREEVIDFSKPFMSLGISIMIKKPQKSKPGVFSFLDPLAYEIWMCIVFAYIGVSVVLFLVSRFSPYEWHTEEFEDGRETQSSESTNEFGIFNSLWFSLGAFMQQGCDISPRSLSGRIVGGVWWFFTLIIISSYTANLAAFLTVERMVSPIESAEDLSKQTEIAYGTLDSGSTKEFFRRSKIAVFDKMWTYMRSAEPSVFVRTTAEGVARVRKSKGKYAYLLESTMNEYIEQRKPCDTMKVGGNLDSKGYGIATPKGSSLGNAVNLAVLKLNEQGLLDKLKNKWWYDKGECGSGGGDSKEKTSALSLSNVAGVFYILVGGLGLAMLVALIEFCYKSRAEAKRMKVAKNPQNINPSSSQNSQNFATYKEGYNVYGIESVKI
Glutamate receptor ionotropic, AMPA (Rattus norvegicus, UniProt P19491+P19492+P19493+P19490), sequence (P19492 whole entry): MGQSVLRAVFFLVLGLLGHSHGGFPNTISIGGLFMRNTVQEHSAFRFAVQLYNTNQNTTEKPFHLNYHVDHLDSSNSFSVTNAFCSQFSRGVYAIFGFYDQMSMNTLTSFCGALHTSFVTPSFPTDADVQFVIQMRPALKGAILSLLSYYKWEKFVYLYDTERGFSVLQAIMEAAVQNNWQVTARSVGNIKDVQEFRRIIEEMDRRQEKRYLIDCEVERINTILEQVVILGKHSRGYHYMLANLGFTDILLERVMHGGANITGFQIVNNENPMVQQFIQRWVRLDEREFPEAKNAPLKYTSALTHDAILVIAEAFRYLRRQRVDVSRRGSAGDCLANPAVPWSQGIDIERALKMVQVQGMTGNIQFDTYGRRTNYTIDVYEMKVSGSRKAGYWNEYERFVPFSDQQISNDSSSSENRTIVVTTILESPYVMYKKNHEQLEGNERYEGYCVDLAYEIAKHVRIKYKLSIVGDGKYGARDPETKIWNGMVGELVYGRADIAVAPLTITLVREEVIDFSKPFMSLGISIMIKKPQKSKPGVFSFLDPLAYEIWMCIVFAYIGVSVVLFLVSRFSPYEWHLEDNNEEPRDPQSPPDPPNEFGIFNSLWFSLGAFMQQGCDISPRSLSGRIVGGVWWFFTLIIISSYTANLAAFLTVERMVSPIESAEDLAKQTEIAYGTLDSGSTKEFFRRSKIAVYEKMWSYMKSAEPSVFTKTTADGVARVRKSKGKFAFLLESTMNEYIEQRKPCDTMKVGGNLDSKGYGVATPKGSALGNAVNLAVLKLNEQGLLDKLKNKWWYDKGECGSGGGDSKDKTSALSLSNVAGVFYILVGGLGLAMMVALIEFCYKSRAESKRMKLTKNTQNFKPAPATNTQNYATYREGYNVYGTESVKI
Glutamate receptor ionotropic, AMPA (Rattus norvegicus, UniProt P19491+P19492+P19493+P19490), sequence (P19493 whole entry): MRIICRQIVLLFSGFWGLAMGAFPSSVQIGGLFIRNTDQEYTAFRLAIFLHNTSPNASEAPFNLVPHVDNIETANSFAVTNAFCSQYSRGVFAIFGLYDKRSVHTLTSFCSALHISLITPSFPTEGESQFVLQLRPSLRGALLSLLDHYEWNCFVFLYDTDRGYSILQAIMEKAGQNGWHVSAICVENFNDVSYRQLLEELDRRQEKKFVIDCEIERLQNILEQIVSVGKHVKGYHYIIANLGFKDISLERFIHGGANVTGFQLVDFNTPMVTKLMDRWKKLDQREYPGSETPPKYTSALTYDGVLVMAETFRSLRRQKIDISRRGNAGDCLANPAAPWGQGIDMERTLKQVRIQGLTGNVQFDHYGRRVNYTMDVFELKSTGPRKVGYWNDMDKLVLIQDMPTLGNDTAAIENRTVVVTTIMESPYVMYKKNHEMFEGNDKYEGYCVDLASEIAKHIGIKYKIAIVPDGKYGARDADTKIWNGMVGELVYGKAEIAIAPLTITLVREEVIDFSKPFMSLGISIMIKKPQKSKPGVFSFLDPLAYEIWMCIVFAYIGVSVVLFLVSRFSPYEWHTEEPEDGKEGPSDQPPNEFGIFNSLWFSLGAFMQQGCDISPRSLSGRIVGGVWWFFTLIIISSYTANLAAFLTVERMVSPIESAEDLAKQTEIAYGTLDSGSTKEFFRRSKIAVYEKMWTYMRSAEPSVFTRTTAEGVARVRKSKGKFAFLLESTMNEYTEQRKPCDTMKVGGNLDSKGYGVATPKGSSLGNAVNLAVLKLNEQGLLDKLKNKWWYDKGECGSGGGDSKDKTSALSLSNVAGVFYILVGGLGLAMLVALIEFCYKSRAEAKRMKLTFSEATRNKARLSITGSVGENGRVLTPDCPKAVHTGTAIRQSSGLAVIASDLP
Glutamate receptor ionotropic, AMPA (Rattus norvegicus, UniProt P19491+P19492+P19493+P19490), sequence (P19490 whole entry): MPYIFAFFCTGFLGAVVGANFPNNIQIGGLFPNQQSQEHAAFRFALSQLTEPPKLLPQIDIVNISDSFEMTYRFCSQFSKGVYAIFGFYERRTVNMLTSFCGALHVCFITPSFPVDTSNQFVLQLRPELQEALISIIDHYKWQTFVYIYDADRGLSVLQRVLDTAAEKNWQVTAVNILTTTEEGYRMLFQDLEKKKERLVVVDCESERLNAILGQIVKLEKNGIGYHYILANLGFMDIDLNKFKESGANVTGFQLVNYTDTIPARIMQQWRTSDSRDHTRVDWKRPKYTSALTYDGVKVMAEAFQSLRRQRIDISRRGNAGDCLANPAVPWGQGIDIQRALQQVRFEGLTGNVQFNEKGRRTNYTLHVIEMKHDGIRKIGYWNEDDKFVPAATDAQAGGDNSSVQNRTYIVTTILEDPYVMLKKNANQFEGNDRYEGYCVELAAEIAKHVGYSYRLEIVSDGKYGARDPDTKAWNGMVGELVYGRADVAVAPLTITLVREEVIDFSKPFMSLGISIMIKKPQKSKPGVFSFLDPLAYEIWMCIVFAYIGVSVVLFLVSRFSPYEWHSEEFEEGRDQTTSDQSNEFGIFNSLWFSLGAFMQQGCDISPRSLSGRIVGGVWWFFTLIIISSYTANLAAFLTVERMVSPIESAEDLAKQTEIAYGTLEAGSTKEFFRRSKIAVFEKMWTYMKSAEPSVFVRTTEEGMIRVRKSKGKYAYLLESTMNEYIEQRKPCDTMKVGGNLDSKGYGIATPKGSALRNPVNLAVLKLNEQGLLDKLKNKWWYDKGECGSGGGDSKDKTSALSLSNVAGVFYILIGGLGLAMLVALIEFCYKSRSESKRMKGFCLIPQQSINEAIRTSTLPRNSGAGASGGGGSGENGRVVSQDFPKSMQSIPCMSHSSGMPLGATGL

IC50 [1]	Structure (SMILES)	IC50 [2]
Not Active	NCCCNCCCCNCCCNC(=O)c1cc2ccccc2[nH]1	
	CCCC(=O)N[C@@H](Cc1c[nH]c2ccccc12)C(=O)NCCCNCCCCNCCCN	300 nM
	CCCC(=O)N[C@@H](Cc1ccc2ccccc2c1)C(=O)NCCCNCCCCNCCCN	100 nM
	CCCC(=O)N1Cc2ccc(O)cc2CC1C(=O)NCCCNCCCCNCCCN (stereo not drawn)	220 nM
	CCCC(=O)N1C[C@H](OCc2ccccc2)C[C@H]1C(=O)NCCCNCCCCNCCCN	260 nM
	CCCC(=O)NC1(C(=O)NCCCNCCCCNCCCN)CCc2ccccc2C1 (stereo not drawn)	250 nM
	CCCC(=O)N[C@@H](Cc1ccc(-c2ccccc2)cc1)C(=O)NCCCNCCCCNCCCN	80 nM
	CCCC(=O)N1CCC(C(=O)NCCCNCCCCNCCCN)(c2ccccc2)CC1	1320 nM
	CCCC(=O)N[C@H](Cc1ccc(O)cc1)C(=O)NCCCNCCCCNCCCN	70 nM
	CCCC(=O)N1c2ccccc2CC1C(=O)NCCCNCCCCNCCCN (stereo not drawn)	1390 nM
	CCCC(=O)NC1(C(=O)NCCCNCCCCNCCCN)Cc2ccccc2C1	190 nM
	CCCC(=O)N[C@H](C(=O)NCCCNCCCCNCCCN)C(c1ccccc1)c1ccccc1	300 nM
	CCCC(=O)N1C[C@@H](Oc2ccc3ccccc3c2)C[C@H]1C(=O)NCCCNCCCCNCCCN	1040 nM
	CCCC(=O)N1Cc2ccccc2C[C@H]1C(=O)NCCCNCCCCNCCCN	370 nM
	CCCC(=O)N[C@H](C(=O)NCCCNCCCCNCCCN)c1ccccc1	320 nM
	CCCC(=O)N[C@@H](CCc1ccccc1)C(=O)NCCCNCCCCNCCCN	170 nM
	CCCC(=O)N[C@@H](Cc1ccccc1)C(=O)NCCCNCCCCNCCCN	430 nM
	CCCC(=O)N[C@@H](Cc1ccc(O)cc1)C(=O)NCCCNCCCCNCCCN [PHILANTHOTOXIN 343]	130 nM
